We go through five compounds from patent publication US20110093959A1, “CRYPTOTIS PARVA SCREENING MODEL FOR ANTIEMETIC POTENTIAL” (priority 2008, published 2011).

Common to all, as to assay type: in vivo, Cryptotis parva
Data set [1] concerns LTC4-induced emesis in the Least Shrew. Kind of data set: CysLT1 antagonists against leukotriene LTC4-induced emesis. The following applies: dose-dependent. As for the experimental part:
Emetic parameters were recorded for 30min post emetic injection.

A further data set concerns NK1 receptor. Kind of data set: Histological analysis of NK1 receptor immunotoxic lesions with SSP-saporin. As for the experimental part:
(§1) Immunohistochemistry was performed by blocking free-floating sections with 10% normal horse serum (NHS) and 3% hydrogen peroxide in PB with 0.3% Triton X-100 (TX) for 30 min After rinsing three times in PB, tissue was put in either: (1) rat anti-Substance P monoclonal antibody (Chemicon, 1:400); (2) sheep anti-Fos polyclonal (Chemicon, 1:600); or (3) rabbit anti-NK1 receptor polyclonal (Santa Cruz, 1:500), with 5% NHS and 0.3% TX, and incubated overnight at room temperature with gentle shaking. After rinsing three times in PB, the tissue was placed in biotinylated donkey anti-rat, anti-sheep, or anti-rabbit (respectively) IgG secondary antibody (Jackson Immuno, dilution 1:600). The secondary antibody was diluted in the same diluent described for the primary antibody, and the tissue incubated at room temperature with shaking for 75 min. After rinsing three times in PB, tissue was incubated for 60 min in horse radish peroxidase-conjugated avidin-biotin complex (Vector Labs Vectastain kit, diluted 1:2) in PB. Tissue was then rinsed twice in PB, then once in imidazole-acetate buffer (0.1 M, pH7.4), then reacted for 6 min in 0.0006% hydrogen peroxide with 2% nickel ammonium sulfate-enhanced diaminobenzidine (DAB, 0.05% in 0.1 M imidazole-acetate buffer).
To better localize the induction of emesis by GR73632, dose-response curves were generated for shrews pretreated either with the NK1 receptor immunotoxin SSP-saporin or saline and challenged four days later with varying doses of GR73632 (0, 1, 2.5, or 5 mg/kg, i.p., n=8-10 per group). Briefly, thirty shrews were injected i.p. with 1.2 mg/kg SSP-saporin in sterile saline, and thirty-five shrews were injected with sterile saline alone. In addition, two more shrews were injected with 1.2 mg/kg unconjugated saporin (saporin; ATS) and two more with 1.2 mg/kg of saporin conjugated to a nonspecific peptide sequence (Blank-saporin; ATS). […] Each shrew was monitored for 30 min post-injection and vomiting and scratching behaviors quantified. […]

A further data set relates to Least Shrew. Description: Dose response emesis and scratching studies with tachykinin receptor agonists. The following applies: for increase in emesis frequency vs vehicle control: 30 min observation. From the text: The present protocols were based upon preliminary studies as well as published findings in the Least Shrew. Darmani, 2001a; Darmani et al., 69 Pharmacol. Biochem. Behay. 239-49 (2001b). On the test day, the shrews were allowed to acclimate to the test laboratory for at least one hour prior to experimentation. To habituate the animals to the test environment, each shrew was randomly selected and transferred to a 20 cm×18 cm×21 cm clean clear plastic cage and offered four mealworms (Tenebrio sp.) 30 min prior to experimentation. […]
(§2) The data on the frequency of emesis and scratchings were analyzed by the Kruskal-Wallis (KW) nonparametric one-way analysis of variance (ANOVA) and post hoc analysis by Dunn's multiple comparisons test or Mann-Whitney test. A P value of <0.05 was necessary to attain statistical significance. The incidence of emesis (number of shrews vomiting) was analyzed by the Fisher's exact test to determine whether there were differences between groups. When appropriate, pairwise comparisons were also made by this method. Two-way analysis of variance using the Kruskal-Wallis or Fisher's exact tests were initially utilized to respectively analyze the dose-response results of GR73632 on emesis and scratching behaviors, and percentage of shrews vomiting in saporin- and corresponding saline-pretreated control shrews. […] For some emesis data, the two-tailed Mann-Whitney test was used. The SP tissue concentration data were analyzed by a one-way ANOVA followed by Dunnett's t test as post hoc analysis. Fos-IR was quantified by counting immunopositive nuclei within each hemisection containing the region of interest (ROI). The number of nuclei was averaged across sections with the ROI for each animal, and the group mean and standard error obtained.

In data set [2] the test system is Least Shrew, NK1 receptor-intact or NK1 receptor-ablated. Kind of data set: GR73632 emesis and scratching after SSP-saporin ablation of peripheral NK1 receptors. As to the method: To better localize the induction of emesis by GR73632, dose-response curves were generated for shrews pretreated either with the NK1 receptor immunotoxin SSP-saporin or saline and challenged four days later with varying doses of GR73632 (0, 1, 2.5, or 5 mg/kg, i.p., n=8-10 per group). Briefly, thirty shrews were injected i.p. with 1.2 mg/kg SSP-saporin in sterile saline, and thirty-five shrews were injected with sterile saline alone. In addition, two more shrews were injected with 1.2 mg/kg unconjugated saporin (saporin; ATS) and two more with 1.2 mg/kg of saporin conjugated to a nonspecific peptide sequence (Blank-saporin; ATS). Shrews were returned to the animal facility for three days and supplied with unrestricted food and water. Saporin-injected and Blank-saporin-injected shrews were perfused four days post-injection, and brain and gut harvested as described for immunohistochemical staining. The SSP-saporin and saline-injected shrews were divided into different groups on day 4 post-injection, and each group was injected i.p. with varying doses varying doses of 0, 1, 2.5, or 5 mg/kg GR73632 dissolved in saline. Each shrew was monitored for 30 min post-injection and vomiting and scratching behaviors quantified. Three shrews from each group were then perfused 90 min to 120 min post-injection as described previously for Fos immunohistochemistry, and brain and gut harvested. Immunohisto-chemistry (IHC) was performed for SP, NK1 receptor, and Fos as described, to qualitatively examine the extent of immunotoxic lesion in the brain and/or enteric nervous system. IHC for SP and NK1 receptor was done on the saporin- and Blank-saporin-injected shrews to verify the specificity of SSP-saporin and lack of toxicity of unconjugated saporin.
as §2

In another data set the test system is Fos. Description: Fos-IR in brain and enteric nervous system after GR73632. The following applies: GR73632 2.5 mg/kg i.p. As to the method: Shrews were given four mealworms each and GR73632 (2.5 mg/kg, i.p., or vehicle (saline)) injection. For emesis-related Fos visualization, a shrew was transcardially perfused 60 min to 75 min after vomiting occurred, typically 20 min to 35 min post-injection.
After the appropriate time period as described above, shrews were anesthetized with a lethal dose of pentobarbital ([…]) and perfused transcardially via 25 ga blunted needle connected to a peristaltic pump. The shrew was perfused first with ice cold heparinized saline (0.9% NaC1, 60 sec-90 sec), followed by ice cold 4% paraformaldehyde/5% picric acid in pH7.4, 0.1 M (10 min). Brains were removed and stored in 30% sucrose in 0.1 M phosphate buffer (PB) overnight, then embedded in blocks of 12% gelatin in 30% sucrose/PB. The blocks were postfixed for 3 hr in 2% paraformaldehyde/PB, then rinsed and immersed in 30% sucrose/PB until they sank (usually 1 hr to 2 hr). The brain block was cut on a freezing benchtop microtome (Leica) at 30 μm into five series, and stored in PB with 0.03% sodium azide.
as §1
After reacting, the tissue was rinsed thoroughly in PB and mounted onto gel-subbed slides out of PB. After air-drying, slides were dehydrated through a series of ascending ethanols (50%-75%-90%-100%), then cleared in xylene (Fisher). Cleared slides were coverslipped with DEPEX (Electron Microscopy Sciences).
Photomicrographs of regions of interest were taken at 1600×1200 pixel digital resolution with a SPOT digital camera (Diagnostic Instruments) attached to a Pentium 4 PC running version 4.0 of the SPOT software. The camera was mounted to a Nikon Eclipse E600 microscope. A calibrated scale bar was added and the photos exported to Adobe Photoshop 7, where the Photoshop brush tool was used to mark Fos+nuclei as they were counted. Relevant structures were identified using an atlas produced in lab (Ray & Darmani, 2007). Cell counts for each structure were averaged on a per-section basis and collated in a spreadsheet for statistical analysis.
The data on the frequency of emesis and scratchings were analyzed by the Kruskal-Wallis (KW) nonparametric one-way analysis of variance (ANOVA) and post hoc analysis by Dunn's multiple comparisons test or Mann-Whitney test. A P value of <0.05 was necessary to attain statistical significance. The incidence of emesis (number of shrews vomiting) was analyzed by the Fisher's exact test to determine whether there were differences between groups. When appropriate, pairwise comparisons were also made by this method. […]

For the compound `O=C(Nc1cccc2c(=O)cc(-c3nnn[nH]3)oc12)c1ccc(OCCCCc2ccccc2)cc1` [Pranlucast, 4-Oxo-8-[(4-phenylbutoxy)benzoylamino]-2-(tetrazol-5-yl)-4H-1-benzopyran], the “prevention of LTC4-induced emesis” value in data set [1] is listed as “prevent LTC4-induced emesis completely”.
Same read-out and setting: in the case of `COc1cc(C(=O)NS(=O)(=O)c2ccccc2C)ccc1Cc1cn(C)c2ccc(NC(=O)OC3CCCC3)cc12` [zafirlucast] it was “prevent LTC4-induced emesis completely”.
In the case of “[Sar^9, Met (O2)“]-SP-saporin [SSP-saporin]”, the “NK1 receptor-IR in the gut vs saline-treated controls” value in the data set with NK1 receptor (1.2 mg/kg i.p., four days) was “clear loss”. Further, in the data set with NK1 receptor (peripherally administered, 1.2 mg/kg i.p.), the “blood brain barrier penetration” value is “does not penetrate the blood brain barrier”.
Regarding “delta Ava [L-Pro^9, N-MeLeu^10]SP (7-11) [GR73632]”, the “frequency of scratching behavior vs vehicle” value in the data set with Least Shrew (2.5 mg/kg i.p.) and in the data set on Least Shrew (5 mg/kg i.p.) was “Significant enhancements” each time. Moreover, the “percentage of shrews vomiting” value in the data set with Least Shrew (2.5 mg/kg i.p.) is reported as 87.5%; in the data set on Least Shrew (5 mg/kg i.p.), 100%; in data set [2] (GR73632 1 mg/kg, NK1 receptor-intact (saline-pretreated) shrews) it was 44%; in data set [2] (GR73632 1 mg/kg, saporin-pretreated NK1 receptor-ablated shrews), 0%; in data set [2] (GR73632 2.5 mg/kg, NK1 receptor-ablated shrews), 28%; in data set [2] (GR73632 2.5 mg/kg, NK1 receptor-intact shrews) it was 62.5%. For the same compound, the “percentage of shrews vomiting” value came to 100% in data set [2] (GR73632 5 mg/kg, NK1 receptor-ablated shrews) and 100% in data set [2] (GR73632 5 mg/kg, NK1 receptor-intact shrews). In addition, the “increase in emesis frequency vs vehicle control” value with Least Shrew (2.5 mg/kg i.p.) was determined as 438%; in the data set on Least Shrew (5 mg/kg i.p.), 575%. For the same compound, the “onset of first emesis after injection” value with Least Shrew (i.p. agonist injection) was 3 to 4 min. In addition, the number of vomits entry in data set [2] (GR73632 1 mg/kg, normal shrews) is recorded as “about two vomits”. The “bouts of vomiting, ablated vs intact shrews” value in data set [2] (GR73632 5 mg/kg, NK1 ablated shrews) is recorded as “significantly less bouts of vomiting”. In addition, the number of scratches entry in data set [2] (GR73632 1, 2.5, 5 mg/kg, NK1 receptor-ablated shrews) is recorded as “increased in a significant manner at all tested doses”. Moreover, the “duration of expulsion of food/liquid” value in data set [2] (NK1 receptor-ablated shrews) is 15 to 30 s. The “duration of emesis (each vomit expulsion)” value in data set [2] (NK1 receptor-intact animals) lay within 2 to 4 s. The “Fos-IR in gastrointestinal enteric nervous system vs saline” value with Fos is listed as “significant differences”. Also, the “shrews in which vomiting was induced” value in the data set on Fos (N=6) is given as “five of six”. Further, in the data set on Fos (mean ± standard error), the “Fos-IR nuclei per coronal hemisection, AP” value worked out at 2.4 ± 1.2. Also, the “Fos-IR nuclei per coronal hemisection, DMNX” value in the data set on Fos (mean ± standard error) came to 3.3 ± 1.0. Besides, in the data set on Fos (mean ± standard error), the “Fos-IR nuclei per coronal hemisection, NTS” value is reported as 8.2 ± 1.1. Besides, in the data set with Fos (mean ± standard error), the “Fos-IR nuclei per coronal hemisection, PFC” value is given as 58.4 ± 14.2.
On to saporin, for which the “NK1 receptor-IR and SP-IR vs control shrews” value in the data set on NK1 receptor (1.2 mg/kg, four days post-injection) was “not different”.
